Molecular target: 72 kDa type IV collagenase (Homo sapiens, UniProt P08253)
Test: Inhibition of recombinant MMP2

Chain of 72 kDa type IV collagenase (P08253 whole entry): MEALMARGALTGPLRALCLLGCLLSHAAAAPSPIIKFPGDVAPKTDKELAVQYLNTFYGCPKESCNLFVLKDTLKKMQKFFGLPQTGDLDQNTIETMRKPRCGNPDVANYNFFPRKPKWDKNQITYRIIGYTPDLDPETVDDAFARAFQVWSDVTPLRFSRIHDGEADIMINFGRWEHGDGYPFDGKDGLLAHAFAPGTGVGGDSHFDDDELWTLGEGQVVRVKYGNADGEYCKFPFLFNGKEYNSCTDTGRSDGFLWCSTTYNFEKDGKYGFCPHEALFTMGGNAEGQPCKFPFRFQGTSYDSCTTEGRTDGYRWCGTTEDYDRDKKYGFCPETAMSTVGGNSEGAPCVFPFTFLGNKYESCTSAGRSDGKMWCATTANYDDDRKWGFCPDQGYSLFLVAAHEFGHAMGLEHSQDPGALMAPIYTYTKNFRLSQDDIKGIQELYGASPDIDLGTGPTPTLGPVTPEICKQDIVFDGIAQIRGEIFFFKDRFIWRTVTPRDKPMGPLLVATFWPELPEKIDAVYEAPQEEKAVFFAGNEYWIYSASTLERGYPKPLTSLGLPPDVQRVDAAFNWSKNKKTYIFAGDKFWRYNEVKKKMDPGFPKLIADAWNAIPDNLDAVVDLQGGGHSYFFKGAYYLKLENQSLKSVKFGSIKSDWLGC

- IC50: 23.2 µM
Compound: CCCCCCC(O)CCCCCCCCCCCOS(=O)(=O)O (stereo unspecified)
